Test results as given in US10786475B2, “Method for preventing, treating, or improving fatty liver by administering effective amounts of azelaic acid to a subject” (Korea University Research and Business Foundation, priority 2018, dated 2020).

Columns and labels:
PPARα [1] = assay: PPARα gene expression by qPCR in Hepa1c1c-7 cells; format: cell-based, mouse; details: 50 μM AzA, 2 hours, compared with control group
Experimental: To confirm the change in PPARα gene expression level by an AzA, Hepa1c1c-7 cells were seeded onto a 24-well plate at 5×10^5 cells/mL, cultured for 24 hours, and treated with 50 μM of AzA for 2 hours. Subsequently, RNA was extracted, and cDNA synthesis was performed from the extracted RNA using a ReverTra Ace® qPCR RT kit (TOYOBO, Osaka, Japan). More specifically, to increase PCR efficiency, the extracted RNA was treated at 65° C. for 5 minutes, and the resulting product was immediately stored on ice. Subsequently, a total of 8 μL of a reaction mixture was prepared with 2 μL of a 4×DNA Master Mix containing a gDNA remover, 0.5 μg of RNA and distilled water (nuclease-free water), and reacted at 37° C. for 5 minutes. Subsequently, a 5×RT Master mix was added to the reaction mixture, reacted at 37° C. for 5 minutes, at 50° C. for 5 minutes and at 98° C. for 5 minutes to synthesize cDNA. The cDNA synthesized by the above method was subjected to qPCR using a THUNDERBIRD SYBR qPCR Mix (TOYOBO) and an iQ5 iCycler system (Bio-Rad, California, USA) according to a method known to those of ordinary skill in the art. More particularly, amplification was performed with initial denaturation at 95° C. for 4.5 minutes, and 40 cycles of additional denaturation at the same temperature for 10 seconds, annealing and cooling at 55 to 60° C. for 30 seconds, and elongation at 68° C. for 20 seconds. […]

PPARα [2] = target: T1, PPARα (Mus musculus, UniProt P23204); assay: PPRE-luciferase assay in HEK293 cells; format: cell-based; details: HEK293 cells transfected with pSG5-PPAR alpha, various concentrations of AzA
T1 construct: host or cells: HEK293 cells (Korean Cell Line Bank)
T1 sequence (P23204 1-468): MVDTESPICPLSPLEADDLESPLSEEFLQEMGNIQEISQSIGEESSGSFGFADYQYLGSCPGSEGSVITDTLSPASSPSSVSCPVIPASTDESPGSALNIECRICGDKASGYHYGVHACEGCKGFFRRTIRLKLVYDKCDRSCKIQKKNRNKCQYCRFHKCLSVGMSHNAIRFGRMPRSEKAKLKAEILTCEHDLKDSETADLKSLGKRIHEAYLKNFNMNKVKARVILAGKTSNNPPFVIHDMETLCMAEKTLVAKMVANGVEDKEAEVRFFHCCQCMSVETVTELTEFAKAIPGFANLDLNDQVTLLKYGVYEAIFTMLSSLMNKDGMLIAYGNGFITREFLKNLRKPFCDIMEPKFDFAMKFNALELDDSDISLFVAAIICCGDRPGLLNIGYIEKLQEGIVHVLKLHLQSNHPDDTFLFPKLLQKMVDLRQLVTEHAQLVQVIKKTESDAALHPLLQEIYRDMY
Experimental: To measure PPRE-luciferase, HEK293 cells (Korean Cell Line Bank) seeded on a 24-well plate at […] cells/well were used. pSG5-PPAR alpha (Addgene, MA, USA) was co-transfected according to a given protocol using pCMV-3×PPRE-Luc, a Renilla expression vector and Lipofectamine 2000 (Invitrogen). After 24-hour post-transfection, the cells were treated with various concentrations of an AzA, and then analyzed using a dual luciferase assay kit (Promega, Fitchburg, Wis., USA) and Victor X2 (PerkinElmer, Santa Clara, Calif.). A luciferase fluorescent signal was standardized using Renilla.

[3] = test system: mouse primary hepatocytes; assay: Fatty acid decomposition gene markers in mouse primary hepatocyte; format: cell-based
Experimental: To reconfirm the liver tissue lipolytic effect of an AzA, an additional experiment was performed using a mouse primary hepatocyte. […] Therefore, it was reconfirmed that an AzA stimulates fatty acid oxidation, thereby treating/preventing a fatty liver lesion.

[4] = test system: Hepa1c1c-7 cells stimulated by LPS; assay: IL-6 and TNF-α gene expression (qPCR) in LPS-treated Hepa1c1c-7 cells; format: cell-based, mouse; details: compared with control group
Experimental: 1 μg of RNA extracted from Hepa1c1c-7 hepatocytes was used to synthesize cDNA by using a ReverTra Ace® qPCR RT kit (TOYOBO, Osaka, Japan). More particularly, to increase the efficiency of an RT-PCR reaction, the extracted RNA was treated at 65° C. for 5 minutes, and immediately stored on ice. Afterward, a total of 8 μL of a reaction mixture was prepared with 2 μL of a 4×DNA Master Mix containing a gDNA remover, 0.5 μg of RNA and distilled water (nuclease-free water), and reacted at 37° C. for 5 minutes. And then, a 5×RT Master mix was added to the reaction mixture, reacted at 37° C.-5 min, 50° C.-5 min and 98° C.-5 min to synthesize cDNA.
PCR was performed with the cDNA synthesized by the above-described method using a THUNDERBIRD SYBR qPCR Mix (TOYOBO, Osaka, Japan) and an iQ5 iCycler system (Bio-Rad, California, USA). More particularly, amplification was performed with initial denaturation at 95° C. for 4.5 minutes, and 40 cycles of additional denaturation at the same temperature for 10 seconds, annealing and cooling at 55 to 60° C. for 30 seconds, and elongation at 68° C. for 20 seconds. The expression level of each gene was normalized using GAPDH expression. Primers were designed using the Nucleotide BLAST Software of the National Center for Biotechnology Information (NCBI), and purchased from Bionics (Seoul, Korea).

[5] = test system: Hepa1c1c-7 cells stimulated by LPS; assay: IL-6 and TNF-α cytokine concentration (ELISA) in LPS-treated Hepa1c1c-7 cells; format: cell-based, mouse; details: 50 μM AzA pretreatment 1 hour, 100 ng/mL LPS 6 hours
Experimental: Hepa1c1c-7 cells were cultured in a 12-well plate for 24 hours. Subsequently, the cells were pretreated with 50 μM of AzA for 1 hour, and treated with 100 ng/mL LPS for 6 hours with the AzA present. The Hepa1c1c-7 cells were lysed in a cell lysis buffer (50 mM Tris, 1% Triton-X 100, 1 mM EDTA, proteinase inhibitor), centrifuged at 13,000 rpm and 4° C. for 20 minutes, thereby obtaining a supernatant, and then the supernatant was analyzed using a Mouse IL6 ELISA kit and a Mouse TNFα ELISA kit (Thermo Scientific, IL, USA). Tumor necrosis factor-alpha (TNF-α) and interleukin-6 (IL-6) were quantified using ELISA known to those of ordinary skill in the art.

**Q.** How did the PPARα expression (PPARα [1]) turn out when `O=C(O)CCCCCCCC(=O)O` [AzA, nonanedioic acid] was run?
**A.** Its PPARα expression is “significant increase”.

**Q.** And the “PPARα activity (PPRE-luciferase): direct ligand for PPARα” value (PPARα [2])?
**A.** Its value is “does not act as a direct ligand for PPARα”.

**Q.** What about the Acox1 gene marker [3] of the same compound?
**A.** Its Acox1 gene marker is “significantly increases”.

**Q.** What about the Cpt1a gene marker [3] of the same compound?
**A.** The Cpt1a gene marker was “significantly increases”.

**Q.** And the Ppara gene marker [3]?
**A.** The Ppara gene marker was “significantly increases”.

**Q.** And the IL-6 gene expression [4]?
**A.** The IL-6 gene expression was “significantly decreased”.

**Q.** What about the TNF-α gene expression [4] of the same compound?
**A.** The TNF-α gene expression was “significantly decreased”.

**Q.** And the “expression level of the IL-6 protein” value [5]?
**A.** The value was “tendency of decrease”.
